Laboratory results as given in ChEMBL document CHEMBL1151013, “The chemical evolution of N,N-dimethyl-2-[5-(1,2,4-triazol-4-yl)-1H-indol-3-yl]ethylamine (L-741,604) and analogues: Potent and selective agonists for 5-HT1D receptors” (Bioorg Med Chem Lett, 1996).

Tests used:
[1] = Plasma clearance in rat was determined; format: ADME, organism-based; conditions: read-out: Clp
[2] = Half-life in rat plasma was determined; format: ADME, organism-based
[3] = Time required to reach maximum concentration in rat plasma; format: ADME, organism-based
[4] = Maximum concentration in rat plasma was determined; format: ADME, organism-based
Rattus norvegicus [5] = organism: Rattus norvegicus; assay: Maximum fall in carotid flow in rat; format: organism-based; conditions: in vivo
Canis familiaris = organism: Canis familiaris; assay: The plasma concentration producing half maximal fall in carotid flow in dogs; format: functional, organism-based; conditions: Canis lupus familiaris
Oryctolagus cuniculus = organism: Oryctolagus cuniculus; assay: Compound was tested for agonist potency from plots of percentage 5-HT (1 uM) response against concentration of the agonist in white rabbit saphenous vein; format: functional, organism-based
Rattus norvegicus [6] = organism: Rattus norvegicus; assay: Inhibition of extravation produced in the dura meter by electrical stimulatio of trigeminal ganglion in rat; format: functional, organism-based

Row | SMILES | clearance [1] [mL/min/kg] | half-life [2] [h] | Tmax [3] [h] | Cmax [4] [ng/mL] | Carotid Flow Decrease (Rattus norvegicus [5]) [%] | IC50 (Canis familiaris) [nM] | EC50 (Oryctolagus cuniculus) [nM] | IC50 (Rattus norvegicus [6]) [nM]
1 | CNS(=O)(=O)Cc1ccc2[nH]cc(CCN(C)C)c2c1 | 69 | 1.1 | 4 | 74 | 44 | 48.6 |  | 
2 | CN(C)CCc1c[nH]c2ccc(-n3cnnc3)cc12 | 37 | 1.3 | 1 | 83 | 27 |  | 32 | 13
3 | CN1CCC(c2c[nH]c3ccc(-n4cnnc4)cc23)CC1 | 48 | 2 | 3 | 53 | 20 | 6.9 | 39 | 69
4 | CN(C)CCc1c[nH]c2ccc(-n3cncn3)cc12 |  |  |  |  |  |  | 62 | 
5 | CN(C)CCc1c[nH]c2ccc(Cn3cncn3)cc12 [RIZATRIPTAN] | 79 | 0.8 | 0.75 | 271 | 76 |  |  | 
